According to paper PMC5054527, “Mechanism of high affinity inhibition of the human urate transporter URAT1” (Scientific Reports, 2016):
Substitutions are numbered along the chain they refer to. Like-named read-outs stand apart in the source and are kept apart here.

Legend:
Assay in all cases: URAT1 uric acid transport activity assay
Type in all cases: cell-based
[1] = biological target: T1, r-N35S/Y365F/M481I rURAT1 triple point mutant (Rattus norvegicus, UniProt Q3ZAV1, M481I/N35S/Y365F)
T1 construct: hURAT1 and rURAT1 are 553 amino acid proteins with 12 transmembrane segments; expressed in transfected cells; host or cells: HEK-293T
T1 sequence (Q3ZAV1 1-553 N35S/Y365F/M481I): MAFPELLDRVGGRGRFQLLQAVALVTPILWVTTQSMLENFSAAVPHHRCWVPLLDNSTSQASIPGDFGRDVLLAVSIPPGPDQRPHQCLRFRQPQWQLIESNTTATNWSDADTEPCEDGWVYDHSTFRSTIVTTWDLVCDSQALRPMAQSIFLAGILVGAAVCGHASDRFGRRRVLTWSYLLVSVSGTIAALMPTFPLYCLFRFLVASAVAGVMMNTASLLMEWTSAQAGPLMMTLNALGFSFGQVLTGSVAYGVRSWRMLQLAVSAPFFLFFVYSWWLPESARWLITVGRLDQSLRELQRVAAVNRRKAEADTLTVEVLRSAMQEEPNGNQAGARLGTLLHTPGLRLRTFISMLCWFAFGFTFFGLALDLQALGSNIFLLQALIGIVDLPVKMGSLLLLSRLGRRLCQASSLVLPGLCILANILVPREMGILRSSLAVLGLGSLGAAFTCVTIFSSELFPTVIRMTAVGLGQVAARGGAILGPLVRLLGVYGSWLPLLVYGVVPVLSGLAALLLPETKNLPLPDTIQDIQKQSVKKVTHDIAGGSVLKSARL
Description: (§1) hURAT1 (GenBank BC053348.1) and rURAT1 (NCBI NM_001034943.1) genes were purchased from Origene Technologies, Inc. and subcloned into pCMV6/neo using NotI, creating pCMV6/neo-hURAT1 and pCMV6/neo-rURAT1. Mutants were produced by polymerase chain reaction (PCR) or site-directed mutagenesis using the QuikChange Lightning Multi Site-Directed Mutagenesis Kit (Agilent Technologies). […] Detailed methods are provided in Supplementary Methods, and primers are listed in Supplementary Table 1. […] Residues in rURAT1 and hOAT1 that correspond to the residues in hURAT1 were identified from aligned protein sequences (Supplementary Fig. 1)[50].
(§2) DNA (10 μg) was mixed with 30 μl of DreamFect Gold (Boca Scientific) in 2 ml OptiMem (Life Technologies). After 20 minutes, 18 ml of media containing 2 × 10^7 cells in suspension was added and mixed, and 200 μl per well were plated onto white clear-bottomed poly-D-lysine coated 96-well plates (BD Biosciences). The cells were assayed the following day.
(§3) Compounds were serially diluted into assay buffer and added to the cells for 5 minutes prior to addition of radiolabelled uric acid substrate. URAT1-expressing cells were incubated with 100 μM ^14C-uric acid for 10 minutes. […] Each treatment was measured in triplicate.
(§4) Unlabelled uric acid was prepared at a 20 mM stock just prior to use in a solution containing 20 mM dibasic potassium phosphate and 20 mM potassium hydroxide.
(§5) Nonlinear regression analyses using GraphPad Prism software were used to calculate the potency of URAT1 inhibitors (IC50 values) from log (inhibitor) versus response - variable slope (four parameters) equations. Statistical significance was assessed using Student’s unpaired t-tests.

[2] = biological target: T2, r-N35S/M481I rURAT1 double point mutant (Rattus norvegicus, UniProt Q3ZAV1, M481I/N35S)
T2 construct: hURAT1 and rURAT1 are 553 amino acid proteins with 12 transmembrane segments; expressed in transfected cells; host or cells: HEK-293T
T2 sequence (Q3ZAV1 1-553 N35S/M481I): T1 sequence (Q3ZAV1 1-553 N35S/Y365F/M481I) with F365Y
Description: as §1, §2, §3, §4, §5

[3] = biological target: T3, r-L29M rURAT1 point mutant (Rattus norvegicus, UniProt Q3ZAV1, L29M)
T3 sequence (Q3ZAV1 1-553 L29M): T1 sequence (Q3ZAV1 1-553 N35S/Y365F/M481I) with L29M, S35N, F365Y, I481M
Description: as §1, §2, §3, §4, §5

CCc1oc2ccccc2c1C(=O)c1cc(Br)c(O)c(Br)c1 [benzbromarone]
IC50 [1]: 0.61 ± 0.04 µM | IC50 [2]: 9 ± 1.5 µM | IC50 [3]: 21 ± 3.3 µM

O=C(O)CSc1nnc(Br)n1-c1ccc(C2CC2)c2ccccc12 [lesinurad, 2-((5-bromo-4-(4-cyclopropylnaphthalen-1-yl)-4H-1,2,4-triazol-3-yl)thio)acetic acid]
IC50 ([1]; r-N35S/Y365F/M481I, MES pH 5.5, 100 μM 14C-uric acid, read-out: IC50 (uric acid transport)): 1.2 ± 0.14 µM | IC50 ([2]; r-N35S/M481I, MES pH 5.5, 100 μM 14C-uric acid, read-out: IC50 (uric acid transport)): 29 ± 1.2 µM | IC50 ([3]; r-L29M, MES pH 5.5, 100 μM 14C-uric acid, read-out: IC50 (uric acid transport)): 77 ± 6.6 µM

O=C1C(CC[S+]([O-])c2ccccc2)C(=O)N(c2ccccc2)N1c1ccccc1 (stereo not drawn) [sulfinpyrazone]
IC50 ([1]; r-N35S/Y365F/M481I, HEPES pH 7.3, 100 μM 14C-uric acid, read-out: IC50 (uric acid transport)): 49 ± 2.2 µM | IC50 ([2]; r-N35S/M481I, HEPES pH 7.3, 100 μM 14C-uric acid, read-out: IC50 (uric acid transport)): 176 ± 44 µM | IC50 ([3]; r-L29M, HEPES pH 7.3, 100 μM 14C-uric acid, read-out: IC50 (uric acid transport)): 495 ± 152 µM
